In US12708620B2, “Prodrugs and medical uses thereof” (priority 2018, dated 2026):

Assays:
[1] = system: MiaPaCa-2 tumor xenograft; assay: pancreatic cancer xenograft model; assay type: in vivo, BALB/c Nude Mice; settings: MiaPaCa-2 xenograft, 600 mg/kg IP, hypoxic status absent, methanesulfonate
Procedure: All animal models were established as xenograft model in BALB/c Nude Mice (6-8 weeks old, 17-23 grams, maintained in standard conditions and diet), following approved IACUC (Institutional Animal Care and Use Committees) protocols. Cpd.11 Ms was formulated using 2% dimethyl sulfoxide (DMSO in water for injection, starting from a Cpd.11 Ms main preparation (100-60 mg/ml in 2% DMSO in water for injection).
After tumor cell inoculation, the animals were checked daily for morbidity and mortality. Before commencement of treatment all animals were weighed and the tumor volumes were measured using a caliper. The treatments were started when the mean tumor size reached approx. 250 mm^3. […] At the time of routine monitoring, the animals were checked for any effects of tumor growth and treatments on normal behavior such as mobility, visual estimation of food and water consumption, body weight gain/loss (body weights were measured daily during the 5-day treatment and thrice weekly after treatment), eye/hair matting and any other abnormal effect. Death and observed clinical signs were recorded on the basis of the numbers of animals within each subset. […] The surrogate endpoint for survival was calculated and indicated as TVx4 (initial tumor volume times 4). […] All data were analyzed in SPSS (Statistical Product and Service Solutions) version 18.0 (IBM, Armonk, NY, U.S.). […]

SW1990 = assay: in vitro cell culture sensitivity in anoxic conditions; assay type: cell-based, human
[2] = system: panel of cancer cell lines; assay: cytotoxicity across the tested cancer cell lines (summary statements); assay type: cell-based, human
Procedure: The IC50 values were obtained using the resazurin-based potency assay under anoxic (<0.01% O2) and/or normoxic conditions (21% O2). The hypoxia cytotoxicity ratio (HCR) is calculated as the ratio of IC50 value […] (HCR=IC50 normoxia/IC50 anoxia).
For anoxic condition, the complete medium for each cell line (25 ml in a T25 or 80 ml in a T80) was equilibrated in the anoxic chamber 48 h before use to allow an as large as possible interchange between media and atmosphere, agitating the flask once a day and just before use. The 96-well plates for cell seeding and the 96-well plates for preparation of a mother plate containing the compound to be tested (e.g. Cpd.11 Ms) at appropriate concentrations as well as disposable reagent reservoirs and pipet tips that are required for cell seeding under anoxic conditions were placed in anoxia at least 72 h before use. […]
Cell seeding was performed starting from a cell suspension (70% confluent flasks of cells). Appropriate cell numbers/volumes were used at the pre-determined cell density (typically 100 μl/well) as determined by performing a growth curve experiment were calculated. […]

With `CCN1CCN(C(=O)c2cc(N(CCBr)CCOS(C)(=O)=O)c(S(C)(=O)=O)cc2[N+](=O)[O-])CC1.CS(=O)(=O)O` [Cpd.11 Ms, 4-(5-((2-bromoethyl) (2-((methylsulfonyl)oxy)ethyl)amino)-4-(methylsulfonyl)-2-nitrobenzoyl)-1-ethylpiperazin-1-ium methanesulfonate] the Anti-tumor effect ([1]; listed as Cpd.11Ms) was “No impact”, the Anti-tumor effect [1] was “not observed” and the “sensitivity in anoxic conditions in vitro” value (SW1990) was “highly Cpd.11 Ms-sensitive”. For the same molecule, the hypoxic cytotoxic ratio ([2]; across cell lines) was at least 10 and the “cytotoxicity against cancer cell lines resistant to cisplatin and/or chlorambucil” value ([2]; pre-clinical models) was “highly cytotoxic”.
